Source: patent US9534008B2, “Small molecule compounds that control plant- and insect-pathogenic nematodes” (California Institute of Technology, priority 2011, dated 2017)
“Also recorded” adds a separate entry of the source.

Columns and labels:
[1] = tested on: C. elegans; test: Ascaroside function (Table 12), C. elegans; assay type: in vivo, Caenorhabditis elegans; design: key to Attract Females/Herm. / Promote Dauer Formation / Attract Males: A very strong result of affecting nematode behavior is designated in the table as “strong.”
Summary of the method: (§1)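 Read-out: nematode behavioral response to applied ascarosides or ascaroside blends; the top category, "strong," marks a very strong effect on behavior.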

[2] = tested on: C. elegans; test: Aggregation assay; assay type: in vivo
Protocol: Aggregation behavior of worms was measured using assays reported in de Bono & Bargmann, Cell 94:679-89 (1998), which is hereby incorporated by reference in its entirety. Aggregation assays were conducted on standard NGM plates. Plates containing indole ascarosides were made by adding the indole ascaroside stock solution to the NGM media before they were poured onto the plates. These plates were dried at room temperature for 2 to 3 days. Control plates were treated similarly, except that ethanol solutions instead of icas solutions were added to the plates, corresponding to the amount of ethanol introduced via the icas solutions. Final ethanol concentrations of the plates were below 0.1% for all conditions. After drying, both control plates and plates containing indole ascarosides were seeded with 150 μl of an overnight culture of E. coli OP50 using a micropipette, and were allowed to dry for 2 days at room temperature. For “low worm density” experiments, 20 worms were placed onto the lawn and left at 20° C. for 3 hours. For “high worm density” experiments, approximately 120 worms were placed onto the bacterial lawn and left at 20° C. for 3 hours. Aggregation behavior was quantified as the number of animals that were in touch with two or more animals at greater than 50% of their body length.

[3] = tested on: C. elegans; conditions: in vivo; cited from earlier work
[4] = tested on: S. feltiae; test: Ascaroside function (Table 12), S. feltiae; assay type: in vivo, Steinernema feltiae
Protocol: Various ascarosides and ascaroside blends were administered to various nematodes described below (Table 12). […] A very strong result of affecting nematode behavior is designated in the table as “strong.”

[5] = tested on: Panagrellus redivivus; test: Ascaroside function (Table 12), Panagrellus redivivus; assay type: in vivo
Summary of the method: as §1

[6] = tested on: C. elegans hermaphrodites and males; test: Spot attraction assay; assay type: in vivo
Protocol: The spot attraction assays were conducted according to a previously reported method (Pungaliya et al., PNAS 106:7708-13 (2009); Srinivasan et al., Nature 454:1115-18 (2008), which are hereby incorporated by reference in their entirety). For both C. elegans hermaphrodites and males, 50-60 worms were harvested daily at the fourth larval stage (L4) and stored segregatedly by sex at 20° C. overnight, to be used as young adults the following day. For the competition experiments, two conditions were used: 120 nM ascr#3 and 10 nM icas#3 (Condition 1), or 12 μM ascr#3 and 1 μM icas#3 (Condition 2) in water containing 10% ethanol. Aliquots were stored at −20° C. in 20 μL tubes. 10% ethanol in water was used as control.
Attraction assays with hbas#3 were conducted as previously reported (Srinivasan et al., Nature 454:1115-18 (2008); Pungaliya et al., Proc. Natl. Acad. Sci. U.S.A. 106:7708-13 (2009), which are hereby incorporated by reference in their entirety). For the attraction assays, 50-60 hermaphrodite worms were harvested daily at the early fourth larval stage (L4) and stored at 20° C. overnight to be used as young adults the following day. Hbas#3 was dissolved in water containing 10% ethanol. Aliquots were stored at −20° C. in 20 μL tubes. 10% ethanol in water was used as control.

[7] = tested on: P. redivivus females; test: Retention assay, P. redivivus females; conditions: in vivo
Protocol: OP50 E. coli was grown on a standard 5 cm agar plate (made with standard Nematode Growth Medium). The bacterial lawn was 16 mm in diameter and was grown overnight at 20° C. before being used in trials. Two 4 mm spots (0.6 μL) were placed on opposite sides of the bacterial lawn (using a transparent template to guide spot placement), and several minutes elapsed for the liquid to settle in before placing nematodes down on the assay. Recording began immediately upon worm placement. […]
Nematodes were isolated by gender at the L4 stage the day before being used in trials as developed adults. […] Trials were recorded for 20 minutes, and frames were collected for analysis at 1 frame per second. […]
A video camera attached to the microscope produced a digital video stream, which was then analyzed. The ratio of the time the average worm spent in each region of interest was calculated for every trial. […] Thus worm pixels were counted instead of whole worms, allowing fractions of a worm in the region of interest to be taken into account. It also eliminated the need for a shape-based worm identification algorithm, and allowed each frame to be analyzed independently. […] Thus, the ratio of worm-pixels to all pixels inside the region of interest can be calculated to produce the worm-occupancy ratio. […]

[8] = tested on: C. elegans; conditions: in vivo; cited from earlier work; remark: listed apart in the source

Compound: C[C@H](CCC(=O)O)O[C@@H]1O[C@@H](C)[C@H](OC(=O)c2c[nH]c3ccccc23)C[C@H]1O [icas#9]
- Attract Females/Herm. [1]: ([strong])
- Promote Dauer Formation [1]: icas#9
- active concentration window (hermaphrodite attraction and aggregation) ([2]; in vivo): femtomolar to picomolar; also recorded: fM-pM
- aggregation of solitary and social hermaphrodites ([2]; low worm density (20 worms per 5 cm plate)): increased aggregation
- aggregation in C. elegans [3]: aggregating stimulant
- Dispersal (of dauer larvae, infectious juveniles) [4]: icas#9
- Repel Females/Herm. [5]: icas#9
- attraction of both C. elegans sexes ([6]; high concentrations, 1 μmol, N2 hermaphrodites and him-5 males): attractive; also recorded: attracted
- attraction of males ([6]; low concentrations, males): but not males
- response of P. redivivus females [7]: repealed
- dauer-inducing activity [8]: moderate; also recorded: promote dauer entry
- shape of dauer response curve [8]: bell-shaped
